Measured values published in patent US20250134870A1, “PATHWAY MODULATOR, PHARMACEUTICAL COMPOSITION HAVING SAME, USE THEREOF, AND THERAPEUTIC METHOD USING SAME” (Jiangsu Yahong Meditech Co., Ltd., priority 2021, published 2025).

System: IRBP R16-induced experimental autoimmune uveoretinitis (EAU)
Assay: Bovine IRBP R16-induced experimental autoimmune uveoretinitis (EAU): clinical score, AUC, incidence (Example 6)
Assay type: in vivo, Lewis rats
Description: On Day-1 (i.e., the day before immunization, hereinafter), 60 rats were randomly divided into 6 groups (n=10) based on body weight (see Table 18). On Day 0, rats in Groups 2 to 6 were anesthetized with isoflurane, followed by subcutaneous injection of a total of […] of emulsion resulting from IRBP R16 and CFA emulsified at a 1:1 v/v ratio, on both thighs (50 μL at each site) and tail head (100 μL), respectively.
From Day 0 after immunization, the eyes of rats were checked daily with a flashlight by gently opening the upper and lower eyelids of the test rats, and the incidence of disease was recorded. Clinical symptoms were scored in a blind manner from the onset of disease to the end of the study according to the criteria listed in Table 17.
Dosing started from Day 0 accurately according to the animal body weight for a total of 16 days.
The results were expressed as “mean±standard error”. Graphpad Prism or SPSS was used for statistical analysis, and p<0.05 was considered statistically significant.

Structure (SMILES): NCc1c[nH]c(=S)n1[C@H]1CCc2c(F)cc(F)cc2C1 [Nepicastat]
- Area under the curve (AUC) of clinical score (25 mg/kg PO QD × 16 days): 45.30
- Area under the curve (AUC) of clinical score (50 mg/kg PO QD × 16 days): 39.65
- Area under the curve (AUC) of clinical score (100 mg/kg PO QD × 16 days): 37.65
- symptoms of uveitis, EAU clinical score and clinical score AUC (25, 50 and 100 mg/kg PO QD × 16 days): moderately ameliorate the symptoms of uveitis and reduced the EAU clinical score and clinical score AUC, but this effect was not statistically significant
- Incidence rate (%) (Day 0, 25 mg/kg PO QD): 0%
- Incidence rate (%) (Day 0, 50 mg/kg PO QD): 0%
- Incidence rate (%) (Day 0, 100 mg/kg PO QD): 0%
- Incidence rate (%) (Day 1, 25 mg/kg PO QD): 0%
- Incidence rate (%) (Day 1, 50 mg/kg PO QD): 0%
- Incidence rate (%) (Day 1, 100 mg/kg PO QD): 0%
- Incidence rate (%) (Day 2, 25 mg/kg PO QD): 0%
- Incidence rate (%) (Day 2, 50 mg/kg PO QD): 0%
- Incidence rate (%) (Day 2, 100 mg/kg PO QD): 0%
- Incidence rate (%) (Day 3, 25 mg/kg PO QD): 0%
- Incidence rate (%) (Day 3, 50 mg/kg PO QD): 0%
- Incidence rate (%) (Day 3, 100 mg/kg PO QD): 0%
- Incidence rate (%) (Day 4, 25 mg/kg PO QD): 0%
- Incidence rate (%) (Day 4, 50 mg/kg PO QD): 0%
- Incidence rate (%) (Day 4, 100 mg/kg PO QD): 0%
- Incidence rate (%) (Day 5, 25 mg/kg PO QD): 70%
- Incidence rate (%) (Day 5, 50 mg/kg PO QD): 70%
- Incidence rate (%) (Day 5, 100 mg/kg PO QD): 80%
- Incidence rate (%) (Day 6, 25 mg/kg PO QD): 100%
- Incidence rate (%) (Day 6, 50 mg/kg PO QD): 100%
- Incidence rate (%) (Day 6, 100 mg/kg PO QD): 80%
- Incidence rate (%) (Day 7, 25 mg/kg PO QD): 70%
- Incidence rate (%) (Day 7, 50 mg/kg PO QD): 100%
- Incidence rate (%) (Day 7, 100 mg/kg PO QD): 50%
- Incidence rate (%) (Day 8, 25 mg/kg PO QD): 100%
- Incidence rate (%) (Day 8, 50 mg/kg PO QD): 100%
- Incidence rate (%) (Day 8, 100 mg/kg PO QD): 100%
- Incidence rate (%) (Day 9, 25 mg/kg PO QD): 100%
- Incidence rate (%) (Day 9, 50 mg/kg PO QD): 100%
- Incidence rate (%) (Day 9, 100 mg/kg PO QD): 100%
- Incidence rate (%) (Day 10, 25 mg/kg PO QD): 100%
- Incidence rate (%) (Day 10, 50 mg/kg PO QD): 100%
- Incidence rate (%) (Day 10, 100 mg/kg PO QD): 100%
- Incidence rate (%) (Day 11, 25 mg/kg PO QD): 100%
- Incidence rate (%) (Day 11, 50 mg/kg PO QD): 100%
- Incidence rate (%) (Day 11, 100 mg/kg PO QD): 100%
- Incidence rate (%) (Day 12, 25 mg/kg PO QD): 100%
- Incidence rate (%) (Day 12, 50 mg/kg PO QD): 100%
- Incidence rate (%) (Day 12, 100 mg/kg PO QD): 100%
- Incidence rate (%) (Day 13, 25 mg/kg PO QD): 100%
- Incidence rate (%) (Day 13, 50 mg/kg PO QD): 100%
- Incidence rate (%) (Day 13, 100 mg/kg PO QD): 100%
- Incidence rate (%) (Day 14, 25 mg/kg PO QD): 100%
- Incidence rate (%) (Day 14, 50 mg/kg PO QD): 100%
- Incidence rate (%) (Day 14, 100 mg/kg PO QD): 100%
- Incidence rate (%) (Day 15, 25 mg/kg PO QD): 100%
- Incidence rate (%) (Day 15, 50 mg/kg PO QD): 100%
- Incidence rate (%) (Day 15, 100 mg/kg PO QD): 100%
- Incidence rate (%) (Day 16, 25 mg/kg PO QD): 100%
- Incidence rate (%) (Day 16, 50 mg/kg PO QD): 100%
- Incidence rate (%) (Day 16, 100 mg/kg PO QD): 100%
- Incidence rate (%) (Day −1, 25 mg/kg PO QD): 0%
- Incidence rate (%) (Day −1, 50 mg/kg PO QD): 0%
- Incidence rate (%) (Day −1, 100 mg/kg PO QD): 0%
- inhibition at 25 mg/kg (Rattus norvegicus, 384 h, 25 mg/kg PO QD × 16 days, vs model control, read-out: Inhibition rate of clinical score AUC): 8.67%
- inhibition at 50 mg/kg (Rattus norvegicus, 384 h, 50 mg/kg PO QD × 16 days, vs model control, read-out: Inhibition rate of clinical score AUC): 20.1%
- inhibition at 100 mg/kg (Rattus norvegicus, 384 h, 100 mg/kg PO QD × 16 days, vs model control, read-out: Inhibition rate of clinical score AUC): 24.1%
